Measured values reported in patent US20250340590A1, “PEPTIDE HAVING ANTI-INFLAMMATORY ACTIVITY AND USE THEREOF” (CAREGEN CO., LTD., priority 2021, published 2025).

Assays:
[1] = test system: IFNγ; assay: IFNγ secretion by ELISA in LPS-induced mouse splenocytes; type: cell-based; conditions: LPS 2 μg/mL, peptide at 5 μM and 50 μM, 24 hours
Procedure: (§1) Inflammation was induced in mouse splenocytes, and the secretion amounts of inflammatory cytokines TNFα, IL-1β, and IFNγ were confirmed. In order to induce inflammation, the cells were treated with an inflammation-inducing antigen, LPS, and since TNFα corresponds to a signaling protein associated with inflammation, IL-1β corresponds to a cytokine that promotes inflammation, and IFNγ also corresponds to a cytokine that promotes inflammation, the degree of inflammation can be confirmed by measuring the secretion amounts of TNFα, IL-1B, and IFNγ.
(§2) Mouse splenocytes were dispensed into a 24-well plate at a concentration of 1×10^7 cells/well and cultured until the next day. The medium was replaced with serum-free medium, and after 4 hours, the cells were treated with LPS and the peptide of the present invention and then cultured again for another 24 hours. In order to induce inflammation, the cells were treated with LPS at 2 μg/mL, and the peptide at 5 μM and 50 μM, respectively. […]

[2] = test system: Cox2; assay: Cox2 protein level by Western blot in HaCaT cells induced with LPS, TGFβ and IL-23; type: cell-based, human; conditions: IL-23 and LPS, peptide at 5 μM and 50 μM, 24 hours, compared to group not treated with the peptide
Procedure: In order to further confirm the anti-inflammatory effect of the peptide treatment of the present invention in addition to the results of Experimental Example 1, HaCaT cells were treated with Th17 (type 17), which is an inflammation-inducing substance, and the expression levels of inflammation-inducing markers iNos and Cox2 were confirmed. As the inflammation-inducing substances, the cells were treated with LPS, TGFβ, and IL-23, and since iNos is an enzyme involved in the production of nitric oxide (NO), which is an inflammation-related protein induced by LPS, etc., it is possible to confirm whether inflammation is inhibited by measuring the expression levels of iNos and Cox2.
HaCaT cells were dispensed into a 24-well plate at a concentration of 3× 10^5 cells/well and cultured until the next day. The medium was replaced with serum-free medium, and after 4 hours, the cells were treated with TGFβ, IL-23, and LPS, which are Th17 type inflammation-inducing cytokines, and then with the peptide of the present invention and cultured again for another 24 hours. […] In order to perform Western blotting, the amounts of iNos and Cox2 proteins were measured using an anti-iNos antibody and an anti-Cox2 antibody (Cell Signaling Technology, USA). […]

[3] = test system: TNFα; assay: TNFα secretion by ELISA in LPS-induced mouse splenocytes; type: cell-based; conditions: LPS 2 μg/mL, peptide at 5 μM and 50 μM, 24 hours
Procedure: as §1, §2

[4] = test system: Cox2; assay: Cox2 mRNA level by RT-PCR in TNFα-induced mouse splenocytes; type: cell-based; conditions: TNFα 20 nM, peptide at 5 μM and 50 μM, 3 hours, compared to group not treated with the peptide
Procedure: In order to further confirm the anti-inflammatory effect of the peptide treatment of the present invention in addition to the results of Experimental Example <3-1>, inflammation was induced by treating mouse splenocytes with TNFα, and the expression levels of inflammatory cytokines TNFα and IL-1β, and Cox2, which is an inflammation-inducing marker, genes were confirmed. In order to induce inflammation, the cells were treated with cytokine TNFα, and since TNFα corresponds to a signaling protein associated with inflammation, IL-1β corresponds to a cytokine that promotes inflammation, and Cox2 is a protein associated with inflammation, the degree of inflammation can be confirmed by measuring the expression levels of TNFα, Cox2, and IL-1β genes.
Mouse splenocytes were dispensed into a 24-well plate at a concentration of 1× 10^7 cells/well and cultured until the next day. The medium was replaced with serum-free medium, and after 3 hours, the cells were treated with TNFα and the peptide of the present invention and then cultured for another 3 hours. In order to induce inflammation, the cells were treated with TNFα at 20 nM, and the peptide at 5 μM and 50 μM, respectively. […] After quantifying the amount of isolated RNA, cDNA was synthesized using a cDNA synthesis kit (Intron, Korea), PCR was performed using a PCR premix (Intron, Korea) and primers for TNFα, Cox2, and IL-1B. […]

TWNS [peptide of the present invention]
decreased: secretion amount of IFNγ [1] | expression level of Cox2 protein [2] | secretion amount of TNFα [3] | mRNA expression level of Cox2 [4]
